Measurements published in patent US20170296611A1, “Pharmaceutical Compositions Comprising Extracts of Sarcopoterium Spinosum, Components Thereof, and Uses Thereof” (Diabest Botanical Drugs Ltd., priority 2009, published 2017).

Assays:
Type in all cases: cell-based
3T3-L1 adipocytes = assay: Free fatty acid release (lipolysis) assay in 3T3-L1 adipocytes
Method: 3T3-L1 pre-adipocytes were cultured and differentiated as described in references 8 as well as 16, 19, 20 and 21. Briefly, cells were grown to confluence in Dulbecco's Modified Eagle's Medium (DMEM) containing 10% fetal calf serum (FCS), 2 mM glutamine and 1% ampicillin. Two days after full confluence, the cells were induced to differentiate by 3 days incubation in DMEM containing 10% FCS, 0.5 mM isobutylmethylxanthine (IBMX), 1 μM dexamethasone and 100 nM insulin. This was followed by 2 days of incubation in DMEM containing 10% FCS and 100 nM insulin. The cells were grown for an additional 5-9 days in DMEM containing 10% FCS. […] Differentiated adipocytes were preincubated for 12 hours in DMEM containing 2% fatty acid-free bovine serum albumin, in the absence of FCS. Lipolysis was stimulated by treating cells with 10 μM isoproterenol for 1 hour, in the absence or presence of insulin (100 nM) or a composition (S. spinosum extract diluted to 0.001-1% V/V). Free fatty acids (FFA) released into the culture media were measured immediately using a NEFA-C kit, according to the kit instructions. Lipolysis was induced using the adrenergic agonist isoproterenol in order to analyze the extract's effect on lipolysis, and the effect of compositions comprising S. spinosum extract on isoproterenol-induced lipolysis measured, with insulin as a positive control. Differentiated adipocytes (3T3-L1) were treated with insulin (100 nM) or a composition comprising 1% (V/V) S. spinosum extract with or without the addition of isoproterenol (10 μM) for 60 min. Free fatty acid (FFA) concentration was measured […].

[1] = test system: GSK3β ser-9 phosphorylation; assay: GSK3β phosphorylation in L6 myotubes (Western blot / ELISA); settings: insulin 100 nM, 20 min
Method: L6 myoblasts were grown in MEM-α containing 25 mM glucose, 10% FCS, 2 mM glutamine and 1% ampicillin. Experiments were performed on differentiated myotubes. In order to induce differentiation, myoblasts were incubated in MEM-α containing 25 mM glucose and 2% FCS for 4 days, followed by an additional 24 h incubation in a MEM-α starvation medium containing 5 mM glucose and 2% FCS. AML-12, a nontransformed hepatocyte cell line were maintained in DMEM containing 25 mM glucose, 10% FCS, 2 mM glutamine and 1% ampicillin. […] Protein lysates were prepared using cell extraction buffer supplemented with protease and phosphatase inhibitors. The samples were homogenized and centrifuged at 14,000 rpm for 20 min. The supernatant was collected and protein concentration was measured using the Bradford method. 20 μg protein per lane was separated by SDS-polyacrylamide gel electrophoresis. Proteins were electrophoretically transferred onto nitrocellulose membranes. The membranes were blocked in 10% dry milk, incubated with the appropriate antibodies and immunodetected using the enhanced chemiluminescence method. Differentiated L6 myotubes were treated with 100 nM insulin or composition (S. spinosum extract diluted to 0.1% V/V) for 20 min. Protein lysates were prepared using cell extraction buffer. […] GSK-3β phosphorylation was measured using the ELISA detection kit. […]

[2] = test system: AML12 hepatocyte cell line; assay: [3H]2-deoxy-D-glucose uptake in hepatocytes; settings: insulin 100 nM
Method: (§1) L6 myoblasts were grown in MEM-α containing 25 mM glucose, 10% FCS, 2 mM glutamine and 1% ampicillin. Experiments were performed on differentiated myotubes. In order to induce differentiation, myoblasts were incubated in MEM-α containing 25 mM glucose and 2% FCS for 4 days, followed by an additional 24 h incubation in a MEM-α starvation medium containing 5 mM glucose and 2% FCS. AML-12, a nontransformed hepatocyte cell line were maintained in DMEM containing 25 mM glucose, 10% FCS, 2 mM glutamine and 1% ampicillin. Differentiated adipocytes, L6 myoblasts and AML12 cells were each preincubated for 6 hours in low glucose (4.5 mM), serum-free DMEM containing 1% BSA, and then treated with either 100 nM insulin or compositions comprising different concentrations of S. spinosum extract (0.001-1% V/V). Glucose uptake was measured in triplicate samples in six-well plates using [^3H]2-deoxy-D-glucose (1 mCi/ml; American Radiolabeled Chemicals, St. Louis, Mo., USA). […] Samples were counted in the ^3H window of a Tricarb scintillation counter. […] The effect of S. spinosum compositions on glucose uptake was measured in the AML12 hepatocyte cell line, L6 skeletal myoblasts and in differentiated 3T3-L1 adipocytes, and compared to the effect of insulin. […] The uptake of [^3H]2-deoxy-D-glucose into cells was determined as described in the Materials and Methods section.

L6 myoblasts = assay: [3H]2-deoxy-D-glucose uptake in L6 myoblasts; settings: insulin 100 nM
Method: as §1

[3] = test system: differentiated 3T3-L1 adipocytes; assay: [3H]2-deoxy-D-glucose uptake in 3T3-L1 adipocytes; settings: insulin 100 nM
Method: 3T3-L1 pre-adipocytes were cultured and differentiated as described in references 8 as well as 16, 19, 20 and 21. Briefly, cells were grown to confluence in Dulbecco's Modified Eagle's Medium (DMEM) containing 10% fetal calf serum (FCS), 2 mM glutamine and 1% ampicillin. Two days after full confluence, the cells were induced to differentiate by 3 days incubation in DMEM containing 10% FCS, 0.5 mM isobutylmethylxanthine (IBMX), 1 μM dexamethasone and 100 nM insulin. This was followed by 2 days of incubation in DMEM containing 10% FCS and 100 nM insulin. The cells were grown for an additional 5-9 days in DMEM containing 10% FCS. […] Glucose uptake was measured in triplicate samples in six-well plates using [^3H]2-deoxy-D-glucose (1 mCi/ml; American Radiolabeled Chemicals, St. Louis, Mo., USA). […] Samples were counted in the ^3H window of a Tricarb scintillation counter. […] The effect of S. spinosum compositions on glucose uptake was measured in the AML12 hepatocyte cell line, L6 skeletal myoblasts and in differentiated 3T3-L1 adipocytes, and compared to the effect of insulin. […] The uptake of [^3H]2-deoxy-D-glucose into cells was determined as described in the Materials and Methods section.

CC(C)NCC(O)c1ccc(O)c(O)c1 (stereo not shown) [isoproterenol, Isoproterenol, reference compound]
free fatty acid release (lipolysis) (3T3-L1 adipocytes; isoproterenol 10 μM for one hour alone): 4.23±3.01 mM FFA/mg protein

insulin
increase in GSK3β ser-9 phosphorylation compared to the control [1]: 4 fold
isoproterenol-induced free fatty acid release (3T3-L1 adipocytes; isoproterenol 10 μM, 60 min, insulin 100 nM): 0.47±0.16 mM FFA/mg protein
free fatty acid release (3T3-L1 adipocytes; unstimulated adipocytes (no isoproterenol)): not affected
increase in glucose uptake [2]: 160±12%
increase in glucose uptake (L6 myoblasts): 146±11.26%
increase in glucose uptake [3]: 167±13%
